Test results as given in patent publication US10758534B2 (Vertex Pharmaceuticals Incorporated, priority 2014, dated 2020).

Target: T1, F508del (Homo sapiens, UniProt P13569, DEL508-508)
T1 construct: expressed in transfected cells
Assay: Protocol 2: FRET membrane potential optical assay (VIPR), identification of correction compounds
Assay type: cell-based
Settings: F508del CFTR modulator activity; compounds of Table 1; read-out: EC30
Method in brief: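 Corrector readout: membrane-potential FRET (CC2-DMPE donor, DiSBAC2(3) acceptor) on VIPR II after Cl⁻-free gluconate bath with 10 μM forskolin and 20 μM genistein. Before this, F508del-expressing NIH3T3 cells were exposed to test compound for 16 h at 37 °C without serum; 27 °C incubation served as temperature-correction control.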

T1 sequence (P13569 with tags, fused parts or gaps DEL508-508): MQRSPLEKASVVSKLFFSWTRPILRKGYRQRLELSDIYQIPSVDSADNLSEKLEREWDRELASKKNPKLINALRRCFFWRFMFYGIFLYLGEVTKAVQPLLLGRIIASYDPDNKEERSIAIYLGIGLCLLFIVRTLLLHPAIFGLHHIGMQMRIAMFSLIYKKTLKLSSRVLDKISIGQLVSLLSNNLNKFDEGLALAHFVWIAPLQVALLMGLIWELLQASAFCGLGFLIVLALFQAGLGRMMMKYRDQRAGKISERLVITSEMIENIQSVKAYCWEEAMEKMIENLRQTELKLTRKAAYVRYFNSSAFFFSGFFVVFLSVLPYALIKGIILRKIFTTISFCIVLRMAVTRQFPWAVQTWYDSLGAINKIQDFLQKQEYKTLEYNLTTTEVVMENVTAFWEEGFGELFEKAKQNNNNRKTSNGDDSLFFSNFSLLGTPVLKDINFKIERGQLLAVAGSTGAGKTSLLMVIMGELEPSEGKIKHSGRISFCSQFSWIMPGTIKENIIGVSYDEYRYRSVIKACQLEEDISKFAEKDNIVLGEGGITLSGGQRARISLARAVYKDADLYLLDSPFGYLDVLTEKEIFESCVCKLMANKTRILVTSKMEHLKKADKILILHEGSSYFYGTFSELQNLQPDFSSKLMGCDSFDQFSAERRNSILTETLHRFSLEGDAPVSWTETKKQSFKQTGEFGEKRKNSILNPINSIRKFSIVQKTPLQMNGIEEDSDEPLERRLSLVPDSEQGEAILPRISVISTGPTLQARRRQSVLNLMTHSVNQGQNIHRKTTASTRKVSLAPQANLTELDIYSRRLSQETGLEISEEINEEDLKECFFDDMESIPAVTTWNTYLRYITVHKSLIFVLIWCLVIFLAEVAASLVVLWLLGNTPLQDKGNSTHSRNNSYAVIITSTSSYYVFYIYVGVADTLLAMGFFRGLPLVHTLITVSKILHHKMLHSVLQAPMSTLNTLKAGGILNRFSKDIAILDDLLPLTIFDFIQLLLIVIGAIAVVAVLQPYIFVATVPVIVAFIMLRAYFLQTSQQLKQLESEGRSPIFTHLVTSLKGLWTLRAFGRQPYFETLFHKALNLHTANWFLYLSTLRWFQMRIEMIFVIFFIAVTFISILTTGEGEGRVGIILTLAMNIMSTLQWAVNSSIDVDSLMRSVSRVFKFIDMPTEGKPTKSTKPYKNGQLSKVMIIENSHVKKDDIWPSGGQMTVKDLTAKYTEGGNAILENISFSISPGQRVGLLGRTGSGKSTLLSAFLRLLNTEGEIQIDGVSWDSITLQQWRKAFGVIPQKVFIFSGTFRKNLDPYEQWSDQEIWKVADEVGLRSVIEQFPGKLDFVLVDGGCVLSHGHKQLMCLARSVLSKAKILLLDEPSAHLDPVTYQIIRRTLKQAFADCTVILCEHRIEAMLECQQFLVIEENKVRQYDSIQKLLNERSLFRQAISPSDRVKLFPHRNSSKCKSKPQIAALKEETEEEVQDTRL

SMILES	EC30 [µM]
COC(=O)N1CCN(c2cccc(S(=O)(=O)NC(=O)c3cccnc3N3CC(C)CC3(C)C)n2)CC1 (stereo not shown) [Compound 2506, methyl 4-[6-[[2-(2,2,4-trimethylpyrrolidin-1-yl)pyridine-3-carbonyl]sulfamoyl]-2-pyridyl]piperazine-1-carboxylate]	3 to 10
CC1CN(c2ncccc2C(=O)NS(=O)(=O)c2cccc(OCc3ccoc3)n2)C(C)(C)C1 (stereo not shown) [Compound 2507, N—[[6-(3-furylmethoxy)-2-pyridyl]sulfonyl]-2-(2,2,4-trimethylpyrrolidin-1-yl)pyridine-3-carboxamide]	< 3
CC(C)COc1cc(F)cc(-c2ccc(C(=O)NS(=O)(=O)N3CC(O)CC(F)(F)C3)c(N3C[C@@H](C)CC3(C)C)n2)c1 (stereo partly drawn) [Compound 2508, N-[(3,3-difluoro-5-hydroxy-1-piperidyl)sulfonyl]-6-(3-fluoro-5-isobutoxy-phenyl)-2-[(4S)-2,2,4-trimethylpyrrolidin-1-yl]pyridine-3-carboxamide]	< 3
CC1CN(c2ncccc2C(=O)NS(=O)(=O)c2cccc(Oc3ccccc3)n2)C(C)(C)C1 (stereo not shown) [Compound 2509, N-[(6-phenoxy-2-pyridyl)sulfonyl]-2-(2,2,4-trimethylpyrrolidin-1-yl)pyridine-3-carboxamide]	< 3
CC1CN(c2ncc(C3=CCC(C(F)(F)F)CC3)cc2C(=O)NS(=O)(=O)c2cccc(N)n2)C(C)(C)C1 (stereo not shown) [Compound 2510, N-[(6-amino-2-pyridyl)sulfonyl]-5-[4-(trifluoromethyl)cyclohexen-1-yl]-2-(2,2,4-trimethylpyrrolidin-1-yl)pyridine-3-carboxamide]	< 3
CCOc1cc(C)cc(-c2ccc(C(=O)NS(=O)(=O)c3cccc(N)n3)c(Oc3c(C)cc(C)cc3C)n2)n1 [Compound 2511, N-[(6-amino-2-pyridyl)sulfonyl]-6-(6-ethoxy-4-methyl-2-pyridyl)-2-(2,4,6-trimethylphenoxy)pyridine-3-carboxamide]	< 3
CCOc1cc(C)cc(-c2ccc(C(=O)NS(=O)(=O)c3ccc[nH]c3=O)c(N3C[C@@H](C)CC3(C)C)n2)c1 [Compound 2512, 6-(3-ethoxy-5-methyl-phenyl)-N-[(2-oxo-1H-pyridin-3-yl)sulfonyl]-2-[(4S)-2,2,4-trimethylpyrrolidin-1-yl]pyridine-3-carboxamide]	< 3
CC1CN(c2ncccc2C(=O)NS(=O)(=O)c2cccc(Nc3c(F)cccc3F)n2)C(C)(C)C1 (stereo not shown) [Compound 2513, N—[[6-(2,6-difluoroanilino)-2-pyridyl]sulfonyl]-2-(2,2,4-trimethylpyrrolidin-1-yl)pyridine-3-carboxamide]	3 to 10
C[C@@H]1CN(c2nc(-c3ccccc3OC(F)(F)F)ccc2C(=O)NS(=O)(=O)c2ccc[nH]c2=O)C(C)(C)C1 [Compound 2514, N-[(2-oxo-1H-pyridin-3-yl)sulfonyl]-6-[2-(trifluoromethoxy)phenyl]-2-[(4S)-2,2,4-trimethylpyrrolidin-1-yl]pyridine-3-carboxamide]	< 3
CC(C)Oc1cccc(-c2ccc(C(=O)NS(=O)(=O)c3cccnc3N)c(N3C[C@@H](C)CC3(C)C)n2)c1 [Compound 2515, N-[(2-amino-3-pyridyl)sulfonyl]-6-(3-isopropoxyphenyl)-2-[(4S)-2,2,4-trimethylpyrrolidin-1-yl]pyridine-3-carboxamide]	< 3
C[C@@H]1CN(c2nc(-c3ccc4c(c3)OCCO4)ccc2C(=O)NS(=O)(=O)c2ccc[nH]c2=O)C(C)(C)C1 [Compound 2516, 6-(2,3-dihydro-1,4-benzodioxin-6-yl)-N-[(2-oxo-1H-pyridin-3-yl)sulfonyl]-2-[(4S)-2,2,4-trimethylpyrrolidin-1-yl]pyridine-3-carboxamide]	3 to 10
CC1CN(c2ncccc2C(=O)NS(=O)(=O)c2cccc(Nc3cccc(N(C)C)c3)n2)C(C)(C)C1 (stereo not shown) [Compound 2517, N—[[6-[3-(dimethylamino)anilino]-2-pyridyl]sulfonyl]-2-(2,2,4-trimethylpyrrolidin-1-yl)pyridine-3-carboxamide]	< 3
CC1CN(c2ncccc2C(=O)NS(=O)(=O)c2cccc(N3CCc4ccc(F)cc4C3)n2)C(C)(C)C1 (stereo not shown) [Compound 2518, N—[[6-(7-fluoro-3,4-dihydro-1H-isoquinolin-2-yl)-2-pyridyl]sulfonyl]-2-(2,2,4-trimethylpyrrolidin-1-yl)pyridine-3-carboxamide]	< 3
Cc1ccc2cc(C(=O)NS(=O)(=O)c3cccc(N)n3)c(N3C[C@@H](C)CC3(C)C)nc2c1 [Compound 2519, N-[(6-amino-2-pyridyl)sulfonyl]-7-methyl-2-[(4S)-2,2,4-trimethylpyrrolidin-1-yl]quinoline-3-carboxamide]	< 3
C[C@@H]1CN(c2nc(C(C)(C)C)c(C3=CCN(C(=O)NC4CCCCC4)CC3)cc2C(=O)NS(=O)(=O)c2cccc(N)n2)C(C)(C)C1 [Compound 2520, N-[(6-amino-2-pyridyl)sulfonyl]-6-tert-butyl-5-[1-(cyclohexylcarbamoyl)-3,6-dihydro-2H-pyridin-4-yl]-2-[(4S)-2,2,4-trimethylpyrrolidin-1-yl]pyridine-3-carboxamide]	3 to 10
CC1CN(c2ncc(-c3ccc(C(C)(C)C#N)cc3)cc2C(=O)NS(=O)(=O)c2cccc(N)n2)C(C)(C)C1 (stereo not shown) [Compound 2521, N-[(6-amino-2-pyridyl)sulfonyl]-5-[4-(1-cyano-1-methyl-ethyl)phenyl]-2-(2,2,4-trimethylpyrrolidin-1-yl)pyridine-3-carboxamide]	< 3
C[C@@H]1CN(c2nc(-c3ccc4c(c3)OCCO4)ccc2C(=O)NS(=O)(=O)c2cccnc2N)C(C)(C)C1 [Compound 2522, N-[(2-amino-3-pyridyl)sulfonyl]-6-(2,3-dihydro-1,4-benzodioxin-6-yl)-2-[(4S)-2,2,4-trimethylpyrrolidin-1-yl]pyridine-3-carboxamide]	< 3
CC1CN(c2ncccc2C(=O)NS(=O)(=O)c2cccc(Oc3ccc4c(c3)CCCC4=O)n2)C(C)(C)C1 (stereo not shown) [Compound 2523, N—[[6-(1-oxotetralin-6-yl)oxy-2-pyridyl]sulfonyl]-2-(2,2,4-trimethylpyrrolidin-1-yl)pyridine-3-carboxamide]	3 to 10
CC1CN(c2ncccc2C(=O)NS(=O)(=O)c2cccc(OCc3ccc(F)cc3)n2)C(C)(C)C1 (stereo not shown) [Compound 2524, N—[[6-[(4-fluorophenyl)methoxy]-2-pyridyl]sulfonyl]-2-(2,2,4-trimethylpyrrolidin-1-yl)pyridine-3-carboxamide]	< 3
CCOc1ccc(-c2ccc(C(=O)NS(=O)(=O)N3CC[C@H](N)C3)c(N3C[C@@H](C)CC3(C)C)n2)cc1 [Compound 2525, N-[(3S)-3-aminopyrrolidin-1-yl]sulfonyl-6-(4-ethoxyphenyl)-2-[(4S)-2,2,4-trimethylpyrrolidin-1-yl]pyridine-3-carboxamide]	3 to 10
CCOc1cccc(Nc2cccc(S(=O)(=O)NC(=O)c3cccnc3N3CC(C)CC3(C)C)n2)c1 (stereo not shown) [Compound 2526, N—[[6-(3-ethoxyanilino)-2-pyridyl]sulfonyl]-2-(2,2,4-trimethylpyrrolidin-1-yl)pyridine-3-carboxamide]	< 3
COc1cc(F)cc(-c2ccc(C(=O)NS(=O)(=O)c3ccc[nH]c3=O)c(N3C[C@@H](C)CC3(C)C)n2)c1 [Compound 2527, 6-(3-fluoro-5-methoxy-phenyl)-N-[(2-oxo-1H-pyridin-3-yl)sulfonyl]-2-[(4S)-2,2,4-trimethylpyrrolidin-1-yl]pyridine-3-carboxamide]	< 3
